Laboratory results: ChEMBL document CHEMBL1148561, “Design, synthesis, and biological evaluation of the N-diarylalkenyl-piperidinecarboxylic acid derivatives as GABA uptake inhibitors (I)” (Bioorg Med Chem Lett, 2006)

Each compound was assayed against Sodium- and chloride-dependent GABA transporter 1 (Homo sapiens, UniProt P30531) (assay: Inhibition of GAT1 transport activity).
Sodium- and chloride-dependent GABA transporter 1, sequence (P30531 whole entry): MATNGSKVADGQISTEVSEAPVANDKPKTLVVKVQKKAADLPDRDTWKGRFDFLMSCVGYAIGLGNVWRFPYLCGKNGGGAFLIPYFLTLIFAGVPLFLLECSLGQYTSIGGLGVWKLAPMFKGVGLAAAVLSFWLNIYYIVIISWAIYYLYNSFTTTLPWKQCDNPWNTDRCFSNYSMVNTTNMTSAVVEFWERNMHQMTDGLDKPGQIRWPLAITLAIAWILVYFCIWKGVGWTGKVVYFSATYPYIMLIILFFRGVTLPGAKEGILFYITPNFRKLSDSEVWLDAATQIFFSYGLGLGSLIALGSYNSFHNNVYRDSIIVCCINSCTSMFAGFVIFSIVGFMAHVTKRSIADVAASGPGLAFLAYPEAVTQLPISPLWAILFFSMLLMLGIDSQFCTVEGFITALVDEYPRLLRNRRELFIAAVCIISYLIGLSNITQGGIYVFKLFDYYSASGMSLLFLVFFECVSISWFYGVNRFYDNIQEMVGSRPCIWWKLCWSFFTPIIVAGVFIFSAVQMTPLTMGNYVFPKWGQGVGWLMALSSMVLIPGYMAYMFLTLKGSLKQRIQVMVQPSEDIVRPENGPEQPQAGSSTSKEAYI

SMILES | IC50 [nM]
CC(C)OCc1ccsc1C(=CCCN1CCCCC1C(=O)O)c1sccc1COC(C)C (stereo not given) | > 100000
Cc1ccsc1C(=CCCN1CCC(C(=O)O)CC1)c1sccc1C | > 100000
COCc1ccsc1C(=CCCN1CCC(C(=O)O)CC1)c1sccc1COC | > 100000
O=C(O)C1CCN(CCC=C(c2sccc2COc2cccc3ccccc23)c2sccc2COc2cccc3ccccc23)CC1 | > 100000
O=C(O)[C@@H]1CCCN(CCC=C(c2sccc2COc2cccc3ccccc23)c2sccc2COc2cccc3ccccc23)C1 | 66300
CC(C)OCc1ccsc1C(=CCCN1CCC(C(=O)O)CC1)c1sccc1COC(C)C | > 100000
O=C(O)C1CCCCN1CCC=C(c1sccc1COCc1ccccc1)c1sccc1COCc1ccccc1 (stereo not given) | 27600
COCc1ccsc1C(=CCCN1CCCCC1C(=O)O)c1sccc1COC (stereo not given) | 12300
O=C(O)C1CCCCN1CCC=C(c1sccc1COc1cccc2ccccc12)c1sccc1COc1cccc2ccccc12 (stereo not given) | > 100000

The next compounds have a lower IC50 than those just listed; values first:

IC50 [nM] | SMILES
840 | O=C(O)[C@@H]1CCCN(CCC=C(c2sccc2COCc2ccccc2)c2sccc2COCc2ccccc2)C1
2800 | COCc1ccsc1C(=CCCN1CCC[C@@H](C(=O)O)C1)c1sccc1COC
680 | O=C(O)[C@@H]1CCCN(CCC=C(c2sccc2COC2CCCCC2)c2sccc2COC2CCCCC2)C1
1240 | O=C(O)C1CCN(CCC=C(c2sccc2COC2CCCCC2)c2sccc2COC2CCCCC2)CC1
7100 | CC(C)OCc1ccsc1C(=CCCN1CCC[C@@H](C(=O)O)C1)c1sccc1COC(C)C
1360 | Cc1ccsc1C(=CCCN1CCCCC1C(=O)O)c1sccc1C (stereo not given)
4340 | O=C(O)C1CCN(CCC=C(c2sccc2COCc2ccccc2)c2sccc2COCc2ccccc2)CC1
340 | O=C(O)[C@@H]1CCCN(CCC=C(c2sccc2COc2ccccc2)c2sccc2COc2ccccc2)C1
940 | O=C(O)C1CCCCN1CCC=C(c1sccc1COC1CCCCC1)c1sccc1COC1CCCCC1 (stereo not given)
1500 | O=C(O)C1CCN(CCC=C(c2sccc2COc2ccccc2)c2sccc2COc2ccccc2)CC1
650 | O=C(O)C1CCCCN1CCC=C(c1sccc1COc1ccccc1)c1sccc1COc1ccccc1 (stereo not given)
